{"source": "patent US20230039836A1", "about": "“AROMATIC SULPHONAMIDES DERIVATIVES THAT INHIBITS PDI A3, THEIR SYNTHESIS AND USE” (Uniwersytet Jagiellonski, priority 2020, published 2023)", "key": {"[1]": {"target": "T1, PDI A1 (Homo sapiens, UniProt P07237)", "T1 construct": "purchased Mybiosource; host or cells: E. coli", "T1 sequence (P07237 18-508, species assumed)": "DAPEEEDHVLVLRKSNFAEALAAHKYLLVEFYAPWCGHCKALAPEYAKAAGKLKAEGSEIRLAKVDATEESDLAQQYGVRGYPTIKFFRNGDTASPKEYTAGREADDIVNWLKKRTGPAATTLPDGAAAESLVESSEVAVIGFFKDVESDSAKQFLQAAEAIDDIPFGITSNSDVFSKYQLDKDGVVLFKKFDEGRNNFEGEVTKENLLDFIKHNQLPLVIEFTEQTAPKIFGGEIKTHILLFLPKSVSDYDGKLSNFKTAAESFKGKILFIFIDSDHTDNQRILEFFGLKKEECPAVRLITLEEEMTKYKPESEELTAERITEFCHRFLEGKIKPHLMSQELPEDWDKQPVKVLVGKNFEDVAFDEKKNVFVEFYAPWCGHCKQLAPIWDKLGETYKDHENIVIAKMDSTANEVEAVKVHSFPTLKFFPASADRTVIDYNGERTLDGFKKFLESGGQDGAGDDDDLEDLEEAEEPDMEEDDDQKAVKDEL", "assay": "Insulin turbidometric assay, inhibition of PDI A1", "format": "biochemical", "details": "insulin reduction, turbidity at 650 nm, 60 min incubation at 37° C.; read-out: Inhibition of PDI A1 (EC 50)", "procedure,_shortened": "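E. coli-expressed recombinant PDIA1 (10 ug/ml) preincubated with compound 60 min at 37 °C in phosphate buffer pH 7.6, 1 mM EDTA, DTT. Reaction started with insulin (0.15 mM final) and DTT (0.174 mM final). Insulin-reduction turbidity recorded at 650 nm over 120 s against PDI-free reference.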"}, "[2]": {"tested_on": "MCF-7", "assay": "Sulforhodamine B antiproliferative assay, 72 h, normal and hypoxia", "format": "cell-based, human", "details": "Homo sapiens, MCF7; hypoxia (<1% of oxygen), 72-hour exposition; read-out: IC50 [µg/ml] MCF-7 hypoxia", "procedure,_shortened": "(§1)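 Cells at 10^5 cells/mL were given four concentrations within 0.1-100 ug/mL for 72 h at 37° C., under 21% O2 (normal) or <1% O2 (hypoxia). Growth read by sulforhodamine B staining after TCA fixation (A540); MTT (A570) was used for estradiol (200 nM) runs. Mean IC50 ± SD from ≥3 independent triplicate experiments.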"}, "[3]": {"tested_on": "MDA-MB-231", "assay": "Sulforhodamine B antiproliferative assay, 72 h, normal and hypoxia", "format": "cell-based, human", "details": "Homo sapiens, MDA-MB-231, 72-hour exposition", "procedure,_shortened": "as §1"}, "[4]": {"tested_on": "Caco-2", "assay": "Sulforhodamine B antiproliferative assay, 72 h", "format": "cell-based, human", "details": "Homo sapiens, Caco-2; normal (21% of oxygen), 72-hour exposition", "method": "In the experiment, cells were seeded on 96-well plates (Sarstedt, Germany) in appropriate culture medium at a density of 10^5 cells/mL 24 h before adding the tested compounds. Cells were treated with each compound in four concentrations in the range 0.1-100 ug/mL. […] Briefly, cells were fixed with 50 µL/well of 50% (w/v) trichloroacetic acid (Avantor Performance Materials, Gliwice, Poland). After 1 h incubation, plates were washed several times with tap water and 50 µL of 0.4% (w/v) solution of sulforhodamine B (Sigma-Aldrich, Germany) in 1% (v/v) acetic acid (Avantor Performance Materials, Gliwice, Poland) was added to each well. After 30 min incubation at room temperature, unbound dye was washed out with 1% (v/v) acetic acid, whereas bound dye was solubilized with 10 mM unbuffered TRIS (Avantor Performance Materials, Gliwice, Poland) solution. […] After additional 30 min, absorbance was read using a Biotek Hybrid H4 reader (BioTek Instruments, USA) at 540 nm wavelength."}, "[5]": {"tested_on": "HT-29", "assay": "Sulforhodamine B antiproliferative assay, 72 h", "format": "cell-based, human", "details": "Homo sapiens, HT-29; normal (21% of oxygen), 72-hour exposition", "procedure,_shortened": "as §1"}, "[6]": {"tested_on": "MCF-7", "assay": "MTT antiproliferative assay, 72 h, with or without estradiol", "format": "cell-based, human", "details": "72 hours exposition; for IC50: Homo sapiens, MCF7, MTT", "procedure": "(§2) Anticancer activity of PDI A1-inhibitors has been also tested in vitro in antiproliferative essay in normoxic and hypoxic conditions as well in estrogen-stimulated cancer cells. In the experiment, cells were seeded on 96-well plates (Sarstedt, Germany) in appropriate culture medium at a density of 10^5 cells/mL 24 h before adding the tested compounds. Cells were treated with each compound in four concentrations in the range 0.1-100 ug/mL. […] After 72 h of compound treatment at 37° C., 5 % CO2 humid atmosphere and in wo different oxygen level conditions: 21% - normal and <1% - hypoxia. In some experiments, the MDA-MB-231 and MCF-7 cells were seeded with or without 200 nM estradiol and after 24 h the tested compounds were added. A previously described sulforhodamine B antiproliferative assay was used with minor modifications (Skehan P et al., 1990). Briefly, cells were fixed with 50 µL/well of 50% (w/v) trichloroacetic acid (Avantor Performance Materials, Gliwice, Poland). After 1 h incubation, plates were washed several times with tap water and 50 µL of 0.4% (w/v) solution of sulforhodamine B (Sigma-Aldrich, Germany) in 1% (v/v) acetic acid (Avantor Performance Materials, Gliwice, Poland) was added to each well. After 30 min incubation at room temperature, unbound dye was washed out with 1% (v/v) acetic acid, whereas bound dye was solubilized with 10 mM unbuffered TRIS (Avantor Performance Materials, Gliwice, Poland) solution. The entire procedure was performed using a BioTek EL-406 washing station (BioTek Instruments, USA). After additional 30 min, absorbance was read using a Biotek Hybrid H4 reader (BioTek Instruments, USA) at 540 nm wavelength. MTT assay was used alternatively for HL-60 cell line and in the experiment in which estrogens are added (specified in the table legend). Absorbance was measured using a Biotek Hybrid H4 reader at 570 nm wavelength for MTT assay.\n(§3) Compounds at each concentration were tested in triplicate in a single experiment and each experiment was repeated at least three times independently.\n(§4) Results of in vitro antiproliferative effects are shown in Table 3 and Table 4 and are presented as mean IC50 ± SD calculated using the Prolab-3 system based on Cheburator 0.4 software.\n(§5) Statistical analysis: Unpaired t test. *p<0.05 as compared to appropriate cells not pretreated with estradiol. MTT assay was used for antiproliferative activity assessment."}, "[7]": {"tested_on": "MDA-MB-231", "assay": "MTT antiproliferative assay, 72 h, with or without estradiol", "format": "cell-based, human", "details": "Homo sapiens, MDA-MB-231, 72 hours exposition, MTT", "procedure": "as §2, §3, §4, §5"}, "[8]": {"tested_on": "HL-60", "assay": "MTT antiproliferative assay, 72 h", "format": "cell-based", "details": "Homo sapiens, 72 hours exposition, read-out: IC50 [µg/ml] HL-60 normal", "procedure": "as §2, §3, §4, §5"}, "[9]": {"tested_on": "HT-29", "assay": "MTT antiproliferative assay, 72 h", "format": "cell-based", "details": "Homo sapiens, 72 hours exposition, read-out: IC50 [µg/ml] HT-29 normal", "procedure": "as §2, §3, §4, §5"}, "[10]": {"tested_on": "HT-29", "assay": "Cell cycle and cell death analysis", "format": "cell-based, human", "procedure": "(§6) Cell cycle and cell death analysis has been performed as previously described (Milczarek M et al. , 2015). Compounds were tested 5 times independently. Obtained results were analyzed using BD FACSDiva 6.2 software."}, "[11]": {"tested_on": "Caco-2", "assay": "Cell cycle and cell death analysis", "format": "cell-based", "details": "FIG. 1C", "procedure": "as §6"}, "[12]": {"tested_on": "Caco-2", "assay": "Caspase-3/7 activity assay", "format": "cell-based, human", "details": "after 48 h treatment; compared to control", "procedure": "(§7) Caspase-3/7 activity assay has been performed as previously described (Milczarek M et al., 2015) after 24 and 48 h of incubation with disclosed compounds. Compounds were tested in triplicate in a single experiment and each experiment was repeated three times independently. Results were normalized to the protein content using the SRB method and reported as mean relative caspase-3/7 activity compared to the control sample ± SD."}, "[13]": {"tested_on": "HT-29", "assay": "Caspase-3/7 activity assay", "format": "cell-based, human", "details": "after 24 and 48 h of incubation; compared to control", "procedure": "as §7"}}}
{"smiles": "COC(=O)C1CN1S(=O)(=O)c1ccccc1", "note": "(stereo not drawn) [Compound C-3251, Methyl 1-(benzenesulfonyl)aziridine-2-carboxylate]", "values": [{"measurement": "EC50", "setting": "[1]", "result": 6, "unit": "µM"}, {"measurement": "IC50", "setting": "[2]", "result": "7.9 ± 6.5", "unit": "µg/mL"}, {"measurement": "IC50", "setting": "[3]; hypoxia (<1% of oxygen), read-out: IC50 [µg/ml] MDA-MB-231 hypoxia", "result": "26.5 ± 1.3", "unit": "µg/mL"}, {"measurement": "IC50", "setting": "[3]; normal (21% of oxygen), read-out: IC50 [µg/ml] MDA-MB-231 normal", "result": "24 ± 6.4", "unit": "µg/mL"}, {"measurement": "IC50", "setting": "[4]", "result": "3.4 ± 0.2", "unit": "µg/mL"}, {"measurement": "IC50", "setting": "[5]", "result": "30.2 ± 4.7", "unit": "µg/mL"}, {"measurement": "Selectivity index (SI): IC50 of MCF-10A/ IC50 of MCF-7", "setting": "[6]", "result": 6.62}, {"measurement": "IC50", "setting": "[6]; 200 nM estradiol, read-out: IC50 [µg/ml] MCF-7 + estradiol", "result": "4 ± 0.2", "unit": "µg/mL"}, {"measurement": "IC50", "setting": "[6]; not pretreated with estradiol, read-out: IC50 [µg/ml] MCF-7 normal", "result": "3.9 ± 0.5", "unit": "µg/mL"}, {"measurement": "IC50", "setting": "[7]; 200 nM estradiol, read-out: IC50 [µg/ml] MDA-MB-231 + estradiol", "result": "29.7 ± 1.9", "unit": "µg/mL"}, {"measurement": "IC50", "setting": "[7]; not pretreated with estradiol, read-out: IC50 [µg/ml] MDA-MB-231 normal", "result": "26.6 ± 2.3", "unit": "µg/mL"}, {"measurement": "IC50", "setting": "[8]", "result": "1.5 ± 0.1", "unit": "µg/mL"}, {"measurement": "IC50", "setting": "[9]", "result": "37.2 ± 8.4", "unit": "µg/mL"}, {"measurement": "Cell cycle distribution, HT-29", "setting": "[10]; FIG. 1C", "result": "decreased HT-29 cells in G0/G1 and increased in G2/M phase"}, {"measurement": "Percentage of death cells, HT-29", "setting": "[10]; FIG. 1D", "result": "increased significantly the percentage of death HT-29 cells"}, {"measurement": "Cell cycle distribution, CaCo-2", "setting": "[11]", "result": "increased the percentage of CaCo-2 cells in S cell cycle phase"}, {"measurement": "Caspase 3/7 activity, Caco-2", "setting": "[12]", "result": "significantly increase caspase 3/7 activity"}, {"measurement": "Caspase 3/7 activity, HT-29", "setting": "[13]", "result": "significantly increase caspase 3/7 activity"}]}
